# Source: patent US7740906B2, “Wood preservatives” (Rohm and Haas Company, priority 2005, dated 2010)
# Assays:
# [1] = Partitioning of DCOIT between polymer and supernatant of the treatment solution (centrifugation, HPLC); assay type: physicochemical; conditions: treatment solution (1500 ppm DCOIT) centrifuged at 100,000 RPM for 20 minutes
# Procedure: An aliquot of well-mixed sample was weighed into a one-ounce screw cap vial. Into the vial was pipetted 20 mL of methanol. The contents were sonicated for one hour in an ultrasonic bath. The sample was filtered through a 0.2 μm filter into an auto-sampler for analysis. The sample preparation was analyzed using a reverse phase HPLC procedure with UV detection according to the wood analysis method below.
# A 3 g sample of as is treatment solution was centrifuged at 10,000 RPM for 10 minutes to precipitate any gelled polymer or other particulates. No solid precipitated. The treatment solution sample was further centrifuged at 100,000 RPM for 20 minutes to precipitated the polymer. The precipitated polymer plug and the clear supernatant were analyzed for DCOIT by HPLC.
# [2] = Leaching assay (modified AWPA E11-97); assay type: physicochemical; conditions: 1000 ppm, 3* (30% DCOIT in xylene); no polymer, no added surfactant
# Excerpt: In order to provide long term protection, the preservative needs to “fix” in the wood and not deplete too rapidly by volatilization or by leaching when the wood gets wet. It might be expected that enhanced penetration or enhanced movement of the preservative deep into the wood during treatment might also lead to reduced fixation of the organic wood preservative. However, it was discovered that the polymers used to provide enhanced penetration also effectively fix the organic biocide in the wood. Two different measures of fixation were used, a dislodgeable residue assay and a very aggressive leaching assay. The dislodgeable residue assay measures how much preservative can be removed or dislodged from the surface of the wood. This is a good assay to determine how much preservative is available or has migrated to the surface of the wood. […] All of the polymers provided exceptional control of dislodgeable residues except for one water soluble polymer that probably redissolves under the assay conditions. Another measure of fixation is resistance to leaching. A very aggressive leaching assay, the AWPA E11-97 assay was used. DCOIT is considered a low leaching organic biocide as is seen by the cumulative % of DCOIT leached in Table 6 with the xylene formulation which doesn't contain any added surfactant. Nonionic surfactants can facilitate the leaching of organic preservatives. […]
compound,measurement,setting,value
"CCCCCCCCn1sc(Cl)c(Cl)c1=O [DCOIT, 4,5-dichloro-2-n-octyl-4-isothiazolin-3-one]",DCOIT in polymer plug,[1],"38,000 ppm"
same,DCOIT in supernatant,[1],34 ppm
same,% Biocide Leached (cumulative),[2],4.4%
